This series can be described thus: method code SF-AS, from DOI: 10.1002/recl.19891080306.
The compound `c1ccc2c(c1)OCCOCCOCCOCCOc1ccccc1OCCOCCOCCOCCO2` displayed a logP of 1.8. The result for `c1ccc2c(c1)OCCOCCOCCOCCOCCOCCO2` reads 0.57.

For `c1ccc2c(c1)OCCOCCOCCOCCOCCOCCOCCO2`, the logP worked out at 0.45. The result for `c1ccc2c(c1)OCCOCCOc1ccccc1OCCOCCO2` reads 2.2; that for `c1ccc2c(c1)OCCOCCOCCOCCO2`, 0.91; that for `c1ccc2c(c1)OCCOCCOCCOCCOCCOCCOCCOc1ccccc1OCCO2`, 1.82. The compound `c1ccc2c(c1)OCCOCCOCCOc1ccccc1OCCOCCOCCO2` registered a lipophilicity (logP) of 2.11. With `c1ccc2c(c1)OCCOCCOCCOCCOCCOCCOc1ccccc1OCCOCCOCCO2` the figure was 1.45. The result for `COCCOCCOCCOc1ccccc1OCCOCCOCCOC` reads 0.38. With `c1ccc2c(c1)OCCOCCOCCOCCOCCOCCOCCOCCOCCO2` the figure was 0.03; with `c1ccc2c(c1)OCCOCCOCCOCCOCCOCCOCCOCCOCCOCCO2`, -0.09. `COCCOCCOc1ccccc1OCCOCCOC` gave a lipophilicity (logP) of 0.76. The result for `c1ccc2c(c1)OCCOCCOCCOCCOCCO2` reads 0.58; that for `COCCOCCOc1cccc(OCCOCCOC)c1`, 0.86. The result for `c1ccc2c(c1)OCCOCCOCCOCCOCCOCCOCCOc1ccccc1OCCOCCOCCOCCOCCOCCOCCO2` reads 0.52. `c1ccc2c(c1)OCCOCCOCCOCCOCCOCCOCCOCCO2` came in with a logP of 0.23. With `c1ccc2c(c1)OCCOCCOCCOCCOCCOCCOc1ccccc1OCCO2` the figure was 1.63. The result for `COCCOCCOc1ccc(OCCOCCOC)cc1` reads 0.76.

A word on the logP: it is a log measure of how a compound divides between an organic and an aqueous phase. A higher logP goes with higher lipophilicity.

The values above are taken from the SangsterLogP compilation.
